# Data as given in US10668049B2, “Methods of treating cognitive decline with transforming growth factor beta inhibitors” (The Regents of the University of California, priority 2008, dated 2020).
# Columns and labels:
# [1] = system: neuronal-enriched culture; test: RT-PCR of neuronal-enriched cultures exposed to albumin; type: cell-based, rat; conditions: albumin for 24 h
# Protocol: Primary neuronal cortical cultures were prepared from embryonic day 18 rats as reported previously (Kaufer et al., 2004). Briefly, cells were dissociated with a papain solution for 20 min at 37° C., After the removal of the papain solution, the tissue was resuspended in growth medium [MEM with Earle's salts containing 2.5% B27 supplement, 0.1% mito serum extender, 5% fetal bovine serum (FBS), 20 mM glucose, and 5 mM L-glutamine] and dissociated by mechanical trituration. The cells were plated, and after 4 h in vitro the cell culture medium was replaced with neurobasal medium supplemented with 2% B27 supplement and 0.5 mM GlutaMAX™. The cells were maintained in 5% CO2 at 37° C. After 7 days in vitro, cytosine arabinofuranoside (AraC) (10 μM) was added to the cultures. After 10 days in vitro, the cells were incubated with 0.4 mM albumin for 24 h at 37° C. For astrocytic cultures, astrocytcs were isolated from the cerebral cortices of PO rat pups. Cells were dissociated with papain and mechanical trituration. The cells were cultured in high-glucose Dulbecco's modified eagle medium supplemented with 10% FBS and 1% penicillin/streptomycin at 37° C. and in 5% C02 (medium was replaced every 3-4 days). After 10 days in vitro, the culture medium was replaced with serum-free high-glucose DMEM (containing 1% penicillin/streptomycin) for 18 h. The cells were then incubated in scrum-free medium containing 0.4 mM albumin for 24 h at 37° C. […]
# Total RNA was isolated from the somatosensory cortices of animals treated with DOC or albumin (24 h treatment; n=3) or from primary cultures (astrocytic and neuronal, n=3 independent experiments). Expression levels were determined by real-time reverse transcriptase-PCR (RT-PCR) with an iQ5 detection system (Bio-Rad, Hercules, Calif.) using gene-specific primer pairs. RT-PCR data were analyzed using the PCR Miner program (Zhao and Fernald, 2005), and fold changes in gene expression were represented relative to sham-operated controls (in-vivo samples) or serum-deprived controls (in-vitro, samples). […]
# [2] = system: cortical slices; test: Extracellular potassium accumulation in cortical slices measured with ion-sensitive microelectrodes; type: cell-based, rat; conditions: slices 24 h following treatment with albumin; frequencies ≥10 Hz
# Protocol: Electrophysiological recordings were obtained 6-10 h following perfusion with sACSF. Control slices were treated similarly, using sACSF without albumin. For extracellular recordings, glass microelectrodes (˜3 MΩ, 154 mM NaCl) were positioned in layer 4 of the neocortex. Slices were stimulated with brief (100 μs) pulses, by using bipolar stimulation electrodes placed at the border between white and gray matter in the same conical column. Trains of 50 stimuli were applied at 2, 5, 10, 20, 50 and 100 Hz, at 2.5× threshold stimulation intensity. […] Extracellular potassium concentrations ([K+]o) were measured with ion-sensitive microelectrodes (ISMEs; Lux and Neher, 1973: Jauch et al., 2002).
# To study K^+ clearance from the extracellular space, K clearance was recorded from control and treated slices (24 h following treatment with albumin) by using ISMEs. Slower decay kinetics of [K^+]o in response to pressure application in BBB-treated animals has been reported (Ivens et al., 2007). Here, [K]o accumulation during neuronal activation at different frequencies of stimulation was tested. In slices from control animals, the increase in [K^+]o was limited to 25% of baseline levels (<3.75 mM) at all stimulation frequencies with the employed stimulation intensities and number of stimuli.
substance,measurement,setting,value
"albumin: bovine serum albumin, used to induce epileptogenesis",GS mRNA levels,[1],downregulation
same,Gjb6 mRNA levels,[1],upregulation
same,expression levels of the same transcripts (except GS and Gjb6),[1],No significant differences
same,"[K+]o accumulation during neuronal activation, level reached",[2],6.7 mM
